As a reminder, the EC50 is the midpoint of the concentration-response curve. Broadly, the MRT is the average time that molecules of a dose stay in the body. As a reminder, the clearance is the rate of elimination divided by the concentration.

In data set [1] the test system is Nrf2 (NQO1 activity in BEAS-2B cells). The experiment in a line: BEAS-2B NQO1 MTT Assay. It is filed as cell-based. The following applies: Homo sapiens, NQO1 specific activity induction. The source says:
NAD(P)H:quinone oxidoreductase 1 (NQO1), also called DT diaphorase, is a homodimeric FAD-containing enzyme that catalyzes obligatory NAD(P)H-dependent two-electron reductions of quinones and protects cells against the toxic and neoplastic effects of free radicals and reactive oxygen species arising from one-electron reductions. The transcription of NQO1 is finely regulated by Nrf2, and thus NQO1 activity is a good marker for Nrf2 activation. On day one, frozen BEAS-2B cells (ATCC) were thawed in a water bath, counted, and re-suspended at a concentration of 250,000 cells/mL. Fifty microliters of cells were plated in 384 well black clear-bottomed plates. Plates were incubated at 37° C., 5% CO2 overnight. On day two, plates were centrifuged and 50 nL of compound or controls were added to the cells. Plates were then incubated at 37° C., 5% CO2 for 48 hours. On day four, medium was aspirated from the plate and crude cell lysates were made by adding 13 μL of 1× Cell Signalling Technologies lysis buffer with 1 Complete, Mini, EDTA-free Protease Inhibitor Tablet (Roche) for each 10 mL of lysis buffer. After lysis plates were incubated for 20 minutes at room temperature. Two microliters of lysate were removed for use in Cell Titer Glo assay (Promega) and MTT cocktail was prepared (Prochaska et. al. 1998) for measurement of NQO1 activity. Fifty microliters of MTT cocktail was added to each well, plate was centrifuged, and analyzed on an Envision plate reader (Perkin Elmer) using Absorbance 570 nm label for 30 minutes. Product formation was measured kinetically and the pEC50 of NQO1 specific activity induction was calculated by plotting the change in absorbance (Delta OD/min) versus the log of compound concentration followed by 3-parameter fitting.
EC50s<1 nM (+++++), EC50s 1 nM-10 nM (++++), EC50s 10 nM-100 nM (+++), EC50s 100 nM-1 μM (++), EC50s 1 μM-10 μM (+).

Data set [2] can be described thus: Mouse Plasma Protein Binding Study. It is filed as in vitro ADME. The following applies: heparinized mouse plasma, pH 7.5, ultracentrifugation 37° C. 3 hours, read-out: Plasma Protein Binding, % bound (converted). On the procedure:
Stock solutions of the compound of Example 1, herein, and Compound A (the compound of Example 1 of WO 2018/109646), were prepared in dimethyl sulfoxide (DMSO) at a concentration of 1 mg/mL. Incubation mixtures were prepared by diluting the stock solution into heparinized mouse plasma to a concentration of 2000 ng/mL. The final concentration of DMSO was 0.2%. The thawed plasma was centrifuged to remove any debris. If necessary, the pH of the plasma sample was adjusted to approximately 7.5 with 1% aqueous phosphoric acid prior to use. Incubation mixtures were prepared. Triplicate 10 μL aliquots of each incubation mixture were collected and analyzed to verify initial compound concentration. Four aliquots of each incubation mixture were placed into separate polyallomer ultracentrifuge tubes. The incubation mixtures were centrifuged in a Beckman Type 42.2 Ti rotor at 42,000 rpm (214,361×g) at 37° C. for 3 hours with maximum acceleration and deceleration. […] The samples were quick frozen on solid carbon dioxide and stored at approximately −80° C. until analyzed by liquid chromatography/tandem mass spectroscopy (LC/MS/MS) for test compound concentration. Total recovery of compound from the ultracentrifugation tubes was calculated with the following formula: […]
Percent unbound (Fu) by ultracentrifugation was calculated with the following formula: […]

Another data set is described as follows: Rat PK Study. The data set is classed as in vivo. As to conditions: plasma, nominal 1 mg/kg 30-minute intravenous infusion; for MRT: read-out: Rat Pharmacokinetics MRT; for clearance: read-out: Rat Pharmacokinetics Total Clearance. On the procedure: All studies were conducted after review by the GSK Institutional Animal Care and Use Committee and in accordance with the GSK Policy on the Care, Welfare and Treatment of Laboratory Animals. This study was conducted with a crossover design on two study days with a one-day recovery period between each study day. At least three days prior to the start of the study, three rats received surgically implanted femoral vein, femoral artery, and gastric catheters for infusion of test molecules, blood sampling, and oral dose administration, respectively. Dose solutions were filtered prior to administration and the actual dosage administered to the animals was quantified. All PK parameters were calculated based on the actual dosage administered to each animal. Urine was collected from 0-24 h following iv administration from each animal for determination of renal clearance.
The compounds used in this study were the compound of Example 1, herein, and Compound A (the compound of Example 1 of WO 2018/109646).
The dose for intravenous administration was prepared in 20% Cavitron™ and 5% DMSO. The intravenous dose formulation was filtered through a 0.22-micron polytetrafluoroethylene (PTFE) filter prior to administration. The dose for oral solution administration was prepared in 6% Cavitron™ and 5% DMSO and was filtered through a 0.22-micron VWR PTFE filter prior to administration.
Each animal received a nominal dose of 1 mg/kg (4 mL/kg dose volume) as a 30-minute intravenous infusion on study day one. On study day two, each animal received a nominal dose of 2 mg/kg (16 mL/kg dose volume) as an oral gavage. Blood samples (approximately 0.11 mL each) were collected from the femoral artery catheter. […] Plasma was isolated from blood by centrifugation and a 30 μL aliquot was transferred to a non-heparinized tube, quick frozen on solid carbon dioxide and stored at approximately −80° C. until analyzed by liquid chromatography/tandem mass spectroscopy (LC/MS/MS) for test compound concentration.
Pharmacokinetic parameters for all in vivo PK studies were calculated using non-compartmental methods with Phoenix WinNonlin version 6.1.0 or 8.1.0. All parameters were calculated using actual blood sampling times and actual dosages for each animal. The extrapolated area under the curve (AUC0-inf) was determined using unweighted linear regression analysis of at least three log transformed concentrations visually assessed to be on the linear portion of the terminal elimination slope. Oral solution bioavailability was calculated in a non-crossover fashion using the mean intravenous dose and AUC0-inf values from the two intravenously dosed animals for the monkey PK study and in a crossover fashion for the rat PK study.

The mark [3] stands for this setting: read-out: Nrf2 BEAS-2B NQO1 EC50.

Read-outs that look alike come from different tables or passages of the source.

Regarding `CC[C@@H]1CN(Cc2cc([C@@H](CC(=O)O)c3ccc4c(nnn4C)c3C)ccc2C)Cc2nc(O)ccc2O1` [Example 1, (R)-3-(1,4-dimethyl-1H-benzo[d][1,2,3]triazol-5-yl)-3-(3-(((R)-2-ethyl-7-hydroxy-2,3-dihydropyrido[2,3-f][1,4]oxazepin-4(5H)-yl)methyl)-4-methylphenyl)propanoic acid], the concentration giving a half-maximal response (EC50) in data set [1] (48 hours, read-out: EC50) was 10 to 100 nM. Also, the EC50 in data set [1] (setting [3]) is 13 nM. In data set [2], the fraction unbound at 3 h, 2000 ng/mL is 0.084. Besides, in “Rat PK Study”, the mean residence time (MRT) worked out at 6.5 h and the clearance turned out to be 5.2 mL/min/kg.

As to `CC[C@@H]1CN(Cc2cc([C@@H](CC(=O)O)c3ccc4c(nnn4C)c3C)ccc2C)Cc2ncccc2O1` [Compound A, reference compound], the EC50 in data set [1] (setting [3]) amounted to 16 nM. Also, the fraction unbound at 3 h, 2000 ng/mL in data set [2] was 0.003. Further, in the data set “Rat PK Study”, the mean residence time (MRT) is 4 h and the clearance turned out to be 1.9 mL/min/kg.
